Test results reported in ChEMBL document CHEMBL1131794, “The synthesis and evaluation of 6-alkylidene-2'beta-substituted penam sulfones as beta-lactamase inhibitors” (Bioorg Med Chem Lett, 1999).

How the values were obtained:
Type in all cases: functional
Escherichia coli [1] = test: In vitro synergistic activity against Escherichia coli C600N + (MIR-1)
Staphylococcus aureus = test: In vitro synergistic activity against Staphylococcus aureus (PC1); also: test concentration or dose not given here
Klebsiella pneumoniae [2] = test: In vitro synergistic activity against Klebsiella pneumoniae GC 6269 clinical isolate; also: test concentration or dose not given here
Escherichia coli [3] = test: In vitro synergistic activity against Escherichia coli 4100 (no beta-lactamase)
Escherichia coli [4] = test: In vitro synergistic activity against Escherichia coli C600N + (SHV-1)
Escherichia coli [5] = test: In vitro synergistic activity against Escherichia coli C600N + (ampR ampC); also: test concentration or dose not given here
Escherichia coli [6] = test: In vitro synergistic activity against Escherichia coli 300 + (TEM-1)
Escherichia coli [7] = test: In vitro synergistic activity against Escherichia coli C600N + (OXA-10) {PSE-2}
Enterobacter cloacae [8] = test: In vitro synergistic activity against Enterobacter cloacae (Imi-1+AmpC)
Enterobacter cloacae [9] = test: In vitro synergistic activity against Enterobacter cloacae SC12629 (AmpC inducible); also: test concentration or dose not given here
Serratia marcescens = test: In vitro synergistic activity against Serratia marcescens GC 4132 (Amp C); also: test concentration or dose not given here
Escherichia coli [10] = test: In vitro synergistic activity against Escherichia coli C600N + (PSE-1)
Escherichia coli [11] = test: In vitro synergistic activity against Escherichia coli ATCC 25922 (no beta-lactamase); also: test concentration or dose not given here
[12] = system: Stenotrophomonas maltophilia; test: In vitro synergistic activity against Stenotrophomonas maltophilia 1712(L1); also: test concentration or dose not given here
Escherichia coli [13] = test: In vitro synergistic activity against Escherichia coli GC6267 clinical isolate
Aeromonas sobria = test: In vitro synergistic activity against Aeromonas sobria (Asb A, OXA-12, Asb M); also: test concentration or dose not given here
Pseudomonas aeruginosa = test: In vitro synergistic activity against Pseudomonas aeruginosa Ps505A1 (AmpC derepressed); also: test concentration or dose not given here
Escherichia coli [14] = test: In vitro synergistic activity against Escherichia coli 4100 + (CCRA)
Escherichia coli [15] = test: In vitro synergistic activity against Escherichia coli C600N (no beta-lactamase)
Escherichia coli [16] = test: In vitro synergistic activity against Escherichia coli C600N + (TEM-1)
Klebsiella pneumoniae [17] = test: In vitro synergistic activity against Klebsiella pneumoniae (ACT-1 + 3 blas, IPM=S); also: test concentration or dose not given here
Klebsiella pneumoniae [18] = test: In vitro synergistic activity against Klebsiella pneumoniae KC2 (TEM-10); also: test concentration or dose not given here
Escherichia coli [19] = test: In vitro synergistic activity against Escherichia coli C600N + (SHV-4)
Escherichia coli [20] = test: In vitro synergistic activity against Escherichia coli C600N + (TEM-10)
Escherichia coli [21] = test: In vitro synergistic activity against Escherichia coli GC6265 (TEM-1)
Escherichia coli [22] = test: In vitro synergistic activity against Escherichia coli C600N + (Imi-1)
Escherichia coli [23] = test: In vitro synergistic activity against Escherichia coli C600N + (L1)
Escherichia coli [24] = test: In vitro synergistic activity against Escherichia coli C600N + (P99)
Escherichia coli [25] = test: In vitro synergistic activity against Escherichia coli 300 + (ampR ampC); also: test concentration or dose not given here
Escherichia coli [26] = test: In vitro synergistic activity against Escherichia coli C600N + (IRT-2); also: test concentration or dose not given here
Escherichia coli [27] = test: In vitro synergistic activity against Escherichia coli C600N + (Sme-1)
Escherichia coli [28] = test: In vitro synergistic activity against Escherichia coli GC 6266 clinical isolate
Escherichia coli [29] = test: In vitro synergistic activity against Escherichia coli ATCC 35218 (TEM-1)
Klebsiella aerogenes = test: In vitro synergistic activity against Enterobacter aerogenes GC 6268 clinical isolate; also: test concentration or dose not given here
Escherichia coli [30] = test: In vitro synergistic activity against Escherichia coli 300 (no beta-lactamase, imp mutant)

Compound | MIC (Escherichia coli [1]) | MIC (Staphylococcus aureus) | MIC (Klebsiella pneumoniae [2]) | MIC (Escherichia coli [3]) | MIC (Escherichia coli [4]) | MIC (Escherichia coli [5]) | MIC (Escherichia coli [6]) | MIC (Escherichia coli [7]) | MIC (Enterobacter cloacae [8]) | MIC (Enterobacter cloacae [9]) | MIC (Serratia marcescens) | MIC (Escherichia coli [10]) | MIC (Escherichia coli [11]) | MIC [12] | MIC (Escherichia coli [13]) | MIC (Aeromonas sobria) | MIC (Pseudomonas aeruginosa) | MIC (Escherichia coli [14]) | MIC (Escherichia coli [15]) | MIC (Escherichia coli [16]) | other results
CCN1CCN(C(=O)NC(C(=O)N[C@@H]2C(=O)N3[C@@H]2SC(C)(C)[C@@H]3C(=O)[O-])c2ccccc2)C(=O)C1=O.C[C@]1(Cn2ccnn2)C(C(=O)[O-])N2C(=O)C[C@H]2S1(=O)=O.[Na+].[Na+] (some centres undefined) | 8 µg/mL | 1 µg/mL | 8 µg/mL | < 0.06 µg/mL | 2 µg/mL | 8 µg/mL | 4 µg/mL | 2 µg/mL | 16 µg/mL | > 64 µg/mL | 32 µg/mL | 1 µg/mL | 2 µg/mL | > 64 µg/mL | 16 µg/mL | 64 µg/mL | 16 µg/mL | > 64 µg/mL | 2 µg/mL | 4 µg/mL | MIC (Klebsiella pneumoniae [17]): 32 µg/mL; MIC (Klebsiella pneumoniae [18]): 2 µg/mL; MIC (Escherichia coli [19]): 2 µg/mL; MIC (Escherichia coli [20]): 2 µg/mL; MIC (Escherichia coli [21]): 4 µg/mL; MIC (Escherichia coli [22]): 16 µg/mL; MIC (Escherichia coli [23]): > 64 µg/mL; MIC (Escherichia coli [24]): 8 µg/mL; MIC (Escherichia coli [25]): 4 µg/mL; MIC (Escherichia coli [26]): 8 µg/mL; MIC (Escherichia coli [27]): 8 µg/mL; MIC (Escherichia coli [28]): 16 µg/mL; MIC (Escherichia coli [29]): 1 µg/mL; MIC (Klebsiella aerogenes): 32 µg/mL
CCN1CCN(C(=O)NC(C(=O)N[C@@H]2C(=O)N3[C@@H]2SC(C)(C)[C@@H]3C(=O)[O-])c2ccccc2)C(=O)C1=O.C[C@]1(COC(=O)Cc2ccc(O)c(O)c2)[C@H](C(=O)[O-])N2C(=O)/C(=C/c3ccccn3)C2S1(=O)=O.[Na+].[Na+] (some centres undefined) | 8 µg/mL | 1 µg/mL | 8 µg/mL | < 0.06 µg/mL | 2 µg/mL | 16 µg/mL | 1 µg/mL | 2 µg/mL | 16 µg/mL | 64 µg/mL | 4 µg/mL | 2 µg/mL | 1 µg/mL | > 64 µg/mL | 16 µg/mL | 1 µg/mL | 2 µg/mL | > 64 µg/mL | 1 µg/mL | 2 µg/mL | MIC (Escherichia coli [30]): < 0.006 µg/mL; MIC (Klebsiella pneumoniae [17]): 32 µg/mL; MIC (Klebsiella pneumoniae [18]): 4 µg/mL; MIC (Escherichia coli [19]): 2 µg/mL; MIC (Escherichia coli [20]): 2 µg/mL; MIC (Escherichia coli [21]): 4 µg/mL; MIC (Escherichia coli [22]): 8 µg/mL; MIC (Escherichia coli [23]): 64 µg/mL; MIC (Escherichia coli [24]): 16 µg/mL; MIC (Escherichia coli [25]): 2 µg/mL; MIC (Escherichia coli [26]): 2 µg/mL; MIC (Escherichia coli [27]): 8 µg/mL; MIC (Escherichia coli [28]): 16 µg/mL; MIC (Escherichia coli [29]): 1 µg/mL; MIC (Klebsiella aerogenes): 64 µg/mL
CC(C)(O/N=C(\C(=O)N[C@@H]1C(=O)N2C(C(=O)[O-])=C(C[n+]3ccccc3)CS[C@H]12)c1csc(N)n1)C(=O)O [CEFTAZIDIME] | 64 µg/mL | 4 µg/mL | 0.5 µg/mL | < 0.06 µg/mL | 0.5 µg/mL | 64 µg/mL | < 0.06 µg/mL | 0.12 µg/mL | 0.5 µg/mL | > 64 µg/mL | 0.25 µg/mL | 0.25 µg/mL | < 0.06 µg/mL | > 64 µg/mL | 0.25 µg/mL | < 0.06 µg/mL | 32 µg/mL | > 64 µg/mL | 0.12 µg/mL | 0.12 µg/mL | MIC (Escherichia coli [30]): < 0.06 µg/mL; MIC (Klebsiella pneumoniae [17]): > 64 µg/mL; MIC (Klebsiella pneumoniae [18]): 64 µg/mL; MIC (Escherichia coli [19]): > 64 µg/mL; MIC (Escherichia coli [20]): 64 µg/mL; MIC (Escherichia coli [21]): < 0.06 µg/mL; MIC (Escherichia coli [22]): 1 µg/mL; MIC (Escherichia coli [23]): 32 µg/mL; MIC (Escherichia coli [24]): 64 µg/mL; MIC (Escherichia coli [25]): 4 µg/mL; MIC (Escherichia coli [26]): 0.25 µg/mL; MIC (Escherichia coli [27]): 0.5 µg/mL; MIC (Escherichia coli [28]): 0.25 µg/mL; MIC (Escherichia coli [29]): < 0.06 µg/mL; MIC (Klebsiella aerogenes): > 64 µg/mL
